The subject of assay [1] is HeLa cells. Nature of the assay: BrdU proliferation assay. In kind it is cell-based, human. The settings on record: 0–200 µM. On the procedure:
The effects of the substances on the proliferation of HeLa cells were investigated using a commercial proliferation kit BrdU (BioVision, Germany) according to the manufacturer’s protocols. After 24 h, the cells were planted in 96-well plates (10^4 cell/mL), the medium was replaced and the substances were administered at doses ranging from 2.5 to 200 µM. After 72 h, the media were discarded, 100 µL 1X of BrdU reactive was added and the samples were incubated in an incubator, containing 5% CO2, 95% fresh air, at 37 °C for 4 h. The medium was then removed, and 100 µL of fixative/denaturation solution was added and incubated for 30 min. 100 µL 1X of the antibody solution BrdU was added and, following 1-h incubation, was washed twice with 300 µL 1X of the washing solution. 100 µL 1X of anti-mouse HRP-linked antibody was added and incubated at room temperature for 1 h. Then, the cells were washed three times with 300 µL 1X of washing solution. The final incubation was performed with 100 µL of TMB substrate solution for 5 min, after which the stop solution was added, and then the reading was taken at a wavelength of 450 nm.

For assay [2], the system named is HeLa cells. Nature of the assay: Intracellular ROS detection. In kind it is cell-based, human. The settings on record: 0–200 μM. The protocol: Intracellular free radicals were measured using the Cellular Reactive Oxygen Species Detection Assay Commercial Kit (Red Fluorescence, Abcam, Cambridge, UK, 186027). In this kit, a fluorescence probe that is permeable to the cell is used. When the probe reacts with ROS, it produces red fluorescence. The process was applied following kit protocol. The cells were planted in black plates, as 3 × 10^4 in 100 µL, and incubated for 24 h. Sulphonamide compounds in PBS were administered at doses of 0–200 µM and incubated at 37 °C in an atmosphere of 5% CO2 for 1 h (protected from light). After the compounds were poured out, the wells were filled with 100 µL of ROS Deep Red Working Solution and incubated at 37 °C in an atmosphere of 5% CO2 for 1 h. A fluorometry device (Spectramax, M5) Ex/Em = 650/675 nm (cut off = 665 nm) was used to take the measurements.

Molecules are shown by their SMILES.

Take `NS(=O)(=O)c1ccc(CCN=Cc2cc(Br)ccc2O)cc1` [Compound 1]: the “antiproliferative effect on HeLa cells (BrdU ELISA)” value in the assay with HeLa cells [1] is listed as “dose-dependent, strong, antiproliferative effect”. Besides, in the assay on HeLa cells [2], the “intracellular ROS amount” value was “dose-related increase”.

For the origin of these results see article PMC6052416, “Selective inhibition of carbonic anhydrase-IX by sulphonamide derivatives induces pH and reactive oxygen species-mediated apoptosis in cervical cancer HeLa cells” (Journal of Enzyme Inhibition and Medicinal Chemistry, 2018).
